Tests used:
[1] = Body weight of C57BL/6J mice fed creamer-containing high fat diet with allulose for 8 weeks; type: in vivo; details: for Body weight: HFD + creamer + 5 wt % allulose (PRA), mean ± SE, in g (unit assumed)
Excerpt: (§1) 16 C57BL/6J mice (male, 4-week-old) were purchased from the Jackson Laboratory (USA) and used. The mice were allowed to adapt to the breeding environment with the lab-chow diet (Purina Co., USA) for 4 weeks. Then, the mice were divided, by using the randomized block design, into a negative control group (PR: 8 mice), in which allulose was not fed, and an experimental group (PRA: 8 mice), in which allulose was fed, and the mice were fed with diet for 8 weeks.
For the diet of the negative control group, AIN-76 diet and HFD were applied, in which creamer [“Prima”, Dongsuh Foods Corporation, Korea; raw materials: 30-38 wt % of hydrogenated vegetable lipid (hydrogenated coconut oil, hydrogenated palm oil), starch syrup (including maltose), sodium caseinate, potassium phosphate dibasic, calcium phosphate tribasic] was used as the vegetable lipid. For the diet of the experimental group, 5 wt % of sugar among the components of the diet of the negative control group were replaced with allulose (crystal allulose, 98 wt % or higher of allulose based on dry solid content, CJ Cheiljedang) and used (Table 1). All animal experiments were conducted with the approval of the Ethical Commission for Animal Experimentation, Kyungpook National University (Approval No.: KNU-2013-18).
Pair feeding was performed based on the experimental group so as to feed the same level of iso-energetic diet, and thereby the effect of calorie reduction by allulose was excluded. The diet was refrigerated at 4° C. during the breeding period. The mice were bred in individual cages under constant temperature (25±2° C.), constant humidity (50±5%), and dark-light cycles at 12 hour intervals.
Dietary intake was measured at constant time every day, and body weight was measured at constant time every week.

[2] = Fecal lipid excretion in C57BL/6J mice fed creamer-containing high fat diet with allulose for 8 weeks; type: in vivo
Excerpt: as §1
For the diet of the negative control group, AIN-76 diet and HFD were applied, in which creamer [“Prima”, Dongsuh Foods Corporation, Korea; raw materials: 30-38 wt % of hydrogenated vegetable lipid (hydrogenated coconut oil, hydrogenated palm oil), starch syrup (including maltose), sodium caseinate, potassium phosphate dibasic, calcium phosphate tribasic] was used as the vegetable lipid. […]
Among them, 200 μL each were collected for the measurement of cholesterol and free fatty acids and dried again under nitrogen gas, and those for the measurement of neutral lipid and total cholesterol were dissolved in 500 μL of ethanol. […] At the time of quantification of total cholesterol and neutral lipid, 3 mM cholic acid (sodium salt) as an emulsifier and 0.5% Triton X-100 (for removal of turbidity that occurs at the time of color development) were mixed and used.
For the measurement of total cholesterol, 10 μL of the solution dissolved in ethanol (500 μL) and the emulsifier (690 μL) were mixed, and then 800 μL of a test solution (Asan Pharmaceutical kit) for measurement applying the enzyme method of Allain et al. (1974) was mixed. For quantification of both in forms of free cholesterol (FC) and cholesterol ester (CE), CE was converted to FC and fatty acid by cholesterol esterase. […] The obtained product and H2O2 as a substrate were reacted with peroxidase, phenol, and 4-amino-antipyrine to obtain a red coloring material, and then the absorbance was measured at 500 nm. The measured value was quantified by comparing with the cholesterol standard curve. […]

[3] = experimental group (PRA) compared to negative control group (PR)

In the case of `O=C(CO)C(O)C(O)C(O)CO` [allulose, Allulose (D-psicose)], the Body weight ([1]; 0 week of diet) is reported as 21.47 ± 0.50, the Body weight ([1]; 8th week of diet) is reported as 27.41 ± 0.48 and the “Inhibitory effect against weight gain” value ([1]; experimental group (PRA) vs negative control (PR), from 1st week of diet, 8 weeks) is reported as “significantly inhibited”. For the same compound, the “Excretion of lipid as feces” value ([2]; allulose ingested along with the vegetable lipid in creamer) was “promoted”, the “Amount of free fatty acids in the feces vs negative control” value [2, 3] was “significantly increased” and the “Amount of triglycerides in the feces vs negative control” value [2, 3] was “significantly increased”.

Reference: US11968990B2, “Creamer comprising vegetable lipids and allulose” (CJ CHEILJEDANG CORPORATION, priority 2016, dated 2024)
